This is an account of results in US9179674B2, “Macrocyclic picolinamide compounds with fungicidal activity” (DOW AGROSCIENCES LLC, priority 2013, dated 2015).

Data set [1] has as its system Magnaporthe grisea; Anamorph: Pyricularia oryzae. Kind of data set: whole plant or invertebrate. The class given is in vivo. Conditions: 24 h, read-out: Disease Control PYRIOR 1DP.
Data set [2] has as its system Glomerella lagenarium; Anamorph: Colletotrichum lagenarium. Kind of data set: Cucumber Anthracnose fungicidal activity (COLLLA). The following applies: Colletotrichum orbiculare, 24 h, 1 Day Protectant, read-out: Disease Control COLLLA 1DP. It counts as in vivo. How it is done:
Technical grades of materials were dissolved in acetone, which were then mixed with nine volumes of water containing 110 ppm Triton X-100. The fungicide solutions were applied onto wheat seedlings using an automated booth sprayer to run-off. All sprayed plants were allowed to air dry prior to further handling. All fungicides were evaluated using the aforementioned method for their activity vs. all target diseases. Wheat leaf blotch and brown rust activity were also evaluated using track spray applications, in which case the fungicides were formulated as EC formulations, containing 0.1% Trycol 5941 in the spray solutions. Wheat plants (variety Yuma) were grown from seed in a greenhouse in 50% mineral soil/50% soil-less Metro mix until the first leaf was fully emerged, with 7-10 seedlings per pot. These plants were inoculated with an aqueous spore suspension of Septoria tritici either prior to or after fungicide treatments. After inoculation the plants were kept in 100% relative humidity (one day in a dark dew chamber followed by two to three days in a lighted dew chamber at 20° C.) to permit spores to germinate and infect the leaf. The plants were then transferred to a greenhouse set at 20° C. for disease to develop. When disease symptoms were fully expressed on the 1st leaves of untreated plants, infection levels were assessed on a scale of 0 to 100 percent disease severity. Percent disease control was calculated using the ratio of disease severity on treated plants relative to untreated plants. Evaluation of Fungicidal Activity: Cucumber Anthracnose (Glomerella lagenarium; Anamorph: Colletotrichum lagenarium; Bayer Code COLLLA) Cucumber seedlings (variety Bush Pickle) were propagated in soil-less Metro mix, with each pot having one plant, and used in the test when 12 to 14 days old. Test plants were inoculated with an aqueous spore suspension of Colletotrichum lagenarium 24 hr after fungicide treatments. After inoculation the plants were kept in a dew room at 22° C. with 100% relative humidity for 48 hr to permit spores to germinate and infect the leaf. The plants were then transferred to a growth room set at 22° C. for disease to develop. Fungicide formulation, application and disease assessment on the sprayed leaves followed the procedures as described in the Example A.

In data set [3] the test system is Blumeria graminis f. sp. tritici. Kind of data set: Wheat Powdery Mildew fungicidal activity (ERYSGT). The class given is in vivo. The following applies: 100 ppm, 1 Day Protectant. How it is done:
Technical grades of materials were dissolved in acetone, which were then mixed with nine volumes of water containing 110 ppm Triton X-100. The fungicide solutions were applied onto wheat seedlings using an automated booth sprayer to run-off. All sprayed plants were allowed to air dry prior to further handling. All fungicides were evaluated using the aforementioned method for their activity vs. all target diseases. Wheat leaf blotch and brown rust activity were also evaluated using track spray applications, in which case the fungicides were formulated as EC formulations, containing 0.1% Trycol 5941 in the spray solutions. Wheat plants (variety Yuma) were grown from seed in a greenhouse in 50% mineral soil/50% soil-less Metro mix until the first leaf was fully emerged, with 7-10 seedlings per pot. These plants were inoculated with an aqueous spore suspension of Septoria tritici either prior to or after fungicide treatments. After inoculation the plants were kept in 100% relative humidity (one day in a dark dew chamber followed by two to three days in a lighted dew chamber at 20° C.) to permit spores to germinate and infect the leaf. The plants were then transferred to a greenhouse set at 20° C. for disease to develop. When disease symptoms were fully expressed on the 1st leaves of untreated plants, infection levels were assessed on a scale of 0 to 100 percent disease severity. Percent disease control was calculated using the ratio of disease severity on treated plants relative to untreated plants. Evaluation of Fungicidal Activity: Wheat Powdery Mildew (Blumeria graminis f. sp. tritici; Synonym: Erysiphe graminis f. sp. tritici; Bayer Code […]) Wheat plants (variety Yuma) were grown from seed in a greenhouse in 50% mineral soil/50% soil-less Metro mix until the first leaf was fully emerged, with 7-10 seedlings per pot. These plants were inoculated by dusting with infected stock plants 24 hr after fungicide treatments. After inoculation the plants were kept in a greenhouse set at 20° C. for disease to develop. […]

The subject of data set [4] is Blumeria graminis f.sp. hordei. Kind of data set: Barley Powdery Mildew fungicidal activity (ERYSGH). The class given is in vivo. The following applies: 24 h, 1 Day Protectant, read-out: Disease Control ERYSGH 1DP. The protocol:
Technical grades of materials were dissolved in acetone, which were then mixed with nine volumes of water containing 110 ppm Triton X-100. The fungicide solutions were applied onto wheat seedlings using an automated booth sprayer to run-off. All sprayed plants were allowed to air dry prior to further handling. All fungicides were evaluated using the aforementioned method for their activity vs. all target diseases. Wheat leaf blotch and brown rust activity were also evaluated using track spray applications, in which case the fungicides were formulated as EC formulations, containing 0.1% Trycol 5941 in the spray solutions. Wheat plants (variety Yuma) were grown from seed in a greenhouse in 50% mineral soil/50% soil-less Metro mix until the first leaf was fully emerged, with 7-10 seedlings per pot. These plants were inoculated with an aqueous spore suspension of Septoria tritici either prior to or after fungicide treatments. After inoculation the plants were kept in 100% relative humidity (one day in a dark dew chamber followed by two to three days in a lighted dew chamber at 20° C.) to permit spores to germinate and infect the leaf. The plants were then transferred to a greenhouse set at 20° C. for disease to develop. When disease symptoms were fully expressed on the 1st leaves of untreated plants, infection levels were assessed on a scale of 0 to 100 percent disease severity. Percent disease control was calculated using the ratio of disease severity on treated plants relative to untreated plants. Evaluation of Fungicidal Activity: Barley Powdery Mildew (Blumeria graminis fsp. hordei; Synonym: Erysiphe graminis fsp. hordei; Bayer Code […]) Barley seedlings (variety Harrington) were propagated in soil-less Metro mix, with each pot having 8 to 12 plants, and used in the test when first leaf was fully emerged. Test plants were inoculated by dusting with infected stock plants 24 hr after fungicide treatments. After inoculation the plants were kept in a greenhouse set at 20° C. for disease to develop. Fungicide formulation, application and disease assessment on the sprayed leaves followed the procedures as described in the Example A.

A further data set has as its system Phakopsora pachyrhizi. The experiment in a line: Asian Soybean Rust fungicidal activity (PHAKPA). It counts as in vivo. The following applies: 25 ppm; for Disease Control PHAKPA 1DP: 1 Day Protectant; for Disease Control PHAKPA 3DC: 3 Day Curative. The protocol: Evaluation of Fungicidal Activity: Asian Soybean Rust (Phakopsora pachyrhizi; Bayer Code PHAKPA)
Technical grades of materials were dissolved in acetone, which were then mixed with nine volumes of water containing 0.011% Tween 20. The fungicide solutions were applied onto soybean seedlings using an automated booth sprayer to run-off. All sprayed plants were allowed to air dry prior to further handling.
Soybean plants (variety Williams 82) were grown in soil-less Metro mix, with one plant per pot. Two weeks old seedlings were used for testing. Plants were inoculated either 3 days prior to or 1 day after fungicide treatments. Plants were incubated for 24 h in a dark dew room at 22° C. and 100% RH then transferred to a growth room at 23° C. for disease to develop. Disease severity was assessed on the sprayed leaves.

One may read the melting point as the temperature, or range, at which the solid turns liquid. The molecule `COc1ccnc(C(=O)N[C@H]2COC[C@H](Cc3ccc(Cl)cc3Cl)[C@@H](OC(=O)C(C)C)[C@H](C)OC2=O)c1OC(C)=O` [Compound F73] came in with a melting point of 93 to 97 °C. Further, the pest or weed control at 100 ppm in data set [1] was in the range of 80 to 100%. For the same molecule, the pest or weed control at 100 ppm in data set [2] lay in the range of 80 to 100%.
`COc1ccnc(C(=O)N[C@H]2COC[C@H](Cc3ccc(C)cc3)[C@@H](OCC(C)C)[C@H](C)OC2=O)c1OC(C)=O` [Compound F80]: the “Disease Control ERYSGT 1DP” value in data set [3] was “A (80-100)”. For the same molecule, the pest or weed control at 100 ppm in data set [4], in data set [1] and in data set [2] was 80 to 100% throughout.
Turning to `COc1ccnc(C(=O)N[C@H]2COC[C@H](CCc3ccccc3)[C@@H](OCC(C)C)[C@H](C)OC2=O)c1OCOC(C)=O` [Compound F82], the pest or weed control at 100 ppm in data set [1] and in data set [2] was 80 to 100% throughout.
Turning to `COc1ccnc(C(=O)N[C@H]2COC[C@H](Cc3cccc4ccccc34)[C@@H](OC(=O)C(C)C)[C@H](C)OC2=O)c1OCOC(C)=O` [Compound F83, (3S,6S,7R,8S)-3-(3-(acetoxymethoxy)-4-methoxypicolin-amido)-6-methyl-8-(naphthalen-1-ylmethyl)-4-oxo-1,5-dioxonan-7-yl isobutyrate], the melting point was 58 to 64 °C. Also, the pest or weed control at 100 ppm in data set [4] lay in the range of 80 to 100%. In addition, in data set [1], the pest or weed control at 100 ppm is 80 to 100%. In addition, the pest or weed control at 100 ppm in data set [2] was 80 to 100%.
As to `COc1ccnc(C(=O)N[C@H]2COC[C@H](Cc3ccc(F)cc3)[C@@H](OCC(C)C)[C@H](C)OC2=O)c1OCOC(C)=O` [Compound F96], in data set [3], the “Disease Control ERYSGT 1DP” value is “A (80-100)”. In addition, the pest or weed control at 100 ppm in data set [4], in data set [1] and in data set [2] was 80 to 100% each time.
In the case of `COc1ccnc(C(=O)N[C@H]2COC[C@H](CC(F)(F)F)[C@@H](OC3CCCC3)[C@H](C)OC2=O)c1OCOC(C)=O` [Compound F105], the pest or weed control at 100 ppm in data set [1] and in data set [2] was 80 to 100% each time.
`COc1ccnc(C(=O)N[C@H]2COC[C@H](CCC(C)C)[C@@H](OCCCC(F)(F)F)[C@H](C)OC2=O)c1OCOC(C)=O` [Compound F107]: in the data set with Phakopsora pachyrhizi, the “Disease Control PHAKPA 1DP” value is recorded as “A (80-100)” and the “Disease Control PHAKPA 3DC” value is reported as “B (More than 0-Less than 80)”. The pest or weed control at 100 ppm in data set [4] was 0 to 80%. In data set [1], the pest or weed control at 100 ppm lay in the range of 80 to 100%.
Take `COc1ccnc(C(=O)N[C@H]2COC[C@H](CCC(C)C)[C@@H](OC(=O)C3CC3)[C@H](C)OC2=O)c1OCOC(C)=O` [Compound F108]: the “Disease Control PHAKPA 1DP” value in the data set with Phakopsora pachyrhizi is given as “A (80-100)”. Also, the “Disease Control PHAKPA 3DC” value in the data set on Phakopsora pachyrhizi was “A (80-100)”. Besides, the pest or weed control at 100 ppm in data set [4] and in data set [1] was 80 to 100% each time.
The molecule `COc1ccnc(C(=O)N[C@H]2COC[C@H](Cc3ccc(Cl)cc3Cl)[C@@H](OC(=O)C(C)C)[C@H](C)OC2=O)c1OCOC(C)=O` [Compound F110] gave a melting point of 62 to 66 °C. In data set [1], the pest or weed control at 100 ppm lay within 80 to 100%. Further, the pest or weed control at 100 ppm in data set [2] lay in the range of 80 to 100%.
Regarding `COc1ccnc(C(=O)N[C@H]2COC[C@H](CC3CCCC3)[C@@H](OC(=O)C(C)C)[C@H](C)OC2=O)c1OCOC(C)=O` [Compound F114], the melting point is 41 to 45 °C. Also, in the data set on Phakopsora pachyrhizi, the “Disease Control PHAKPA 1DP” value was “A (80-100)” and the “Disease Control PHAKPA 3DC” value is on record as “B (More than 0-Less than 80)”. The pest or weed control at 100 ppm in data set [4] lay in the range of 80 to 100%. For the same molecule, the pest or weed control at 100 ppm in data set [1] is 80 to 100%. Further, the pest or weed control at 100 ppm in data set [2] was in the range of 80 to 100%.
As to `COc1ccnc(C(=O)N[C@H]2COC[C@H](Cc3ccc(C)cc3)[C@@H](OCC(C)C)[C@H](C)OC2=O)c1OCOC(C)=O` [Compound F117], in data set [3], the “Disease Control ERYSGT 1DP” value is on record as “A (80-100)”. Moreover, the pest or weed control at 100 ppm in data set [4], in data set [1] and in data set [2] was 80 to 100% in each case.
As for `CCCCCO[C@@H]1[C@@H](Cc2ccc(Cl)cc2Cl)COC[C@H](NC(=O)c2nccc(OC)c2OCOC(=O)COCC)C(=O)O[C@H]1C` [Compound F122], the “Disease Control PHAKPA 1DP” value with Phakopsora pachyrhizi is on record as “B (More than 0-Less than 80)”. Besides, the pest or weed control at 100 ppm in data set [4] and in data set [2] was 80 to 100% throughout.
`CCCCCO[C@@H]1[C@@H](Cc2ccc(Cl)cc2Cl)COC[C@H](NC(=O)c2nccc(OC)c2OC(=O)CCOC)C(=O)O[C@H]1C` [Compound F123] registered a melting point of 96 to 99 °C. The “Disease Control PHAKPA 1DP” value in the data set with Phakopsora pachyrhizi is “B (More than 0-Less than 80)”. In data set [4], the pest or weed control at 100 ppm lay within 80 to 100%. In addition, in data set [2], the pest or weed control at 100 ppm was in the range of 80 to 100%.
